Structures can show the parent of a compound that is named as a salt.

One data set in a line: RP, Waters ACQUITY UPLC BEH C18, 100 × 2.1 mm, 1.7 µm; A: water + 0.1% formic acid, pH 3; B: 80% acetonitrile + 20% acetone + 0.1% formic acid, pH 3; gradient (min/%B) 0/0 6/100. To be noted: stereoisomer not certain.
Regarding `O=C(O)CNC(=O)c1cccnc1` [Nicotinuric acid], the LC retention time stood at 1.35 min.

As for `O=C(O)CNC(=O)C=Cc1c[nH]c2ccccc12` [INDOLE-3-ACRYLOYLGLYCINE], the LC retention time was 2.13 min.

As for `CC12CCc3occc3C1CCC13CC(CCC12)C(O)(CO)C3` (stereo unspecified) [Cafestol (10x dilute)], the LC retention time is 3.19 min.

Regarding `CC12C=CC(=O)C=C1CCC1C2C(O)CC2(C)C1CCC2(O)C(=O)CO` (stereo unspecified) [Prednisolone], the LC retention time was 2.65 min.

For the compound `CCC(=O)OC(CC(=O)[O-])C[N+](C)(C)C` (stereo unspecified) [propionylcarnitine chloride], the LC retention time came out at 1.35 min.

For `CC(C)C(N)C(=O)NC(CCC(=O)O)C(=O)O` (stereo unspecified) [val-glu], the LC retention time was 0.906 min.

Consider `CC(O)C(NC(=O)C1CCCN1)C(=O)O` (stereo unspecified) [pro-thr], for which the LC retention time was found to be 0.6 min.

Take `CCC(C)C(NC(=O)C1CCC(=O)N1)C(=O)O` (stereo unspecified) [pglu-ile]: the LC retention time was determined as 1.83 min.

For the compound `CC(C)C(O)C(=O)O` (stereo unspecified) [2-Hydroxy-3-methylbutyric acid], the LC retention time worked out at 1.69 min.

For `CC(C)C(NC(=O)C(N)Cc1ccccc1)C(=O)O` (stereo unspecified) [Phe-Val], the LC retention time amounted to 1.63 min.

`CC(C)C1NC(=O)C(Cc2ccccc2)NC1=O` (stereo unspecified) [Cyclic(phe-val)]: the LC retention time came to 2.39 min.

As to `O=C(O)CC(NC(=O)C1CCC(=O)N1)C(=O)O` (stereo unspecified) [pglu-asp], the LC retention time turned out to be 0.6 min.

With `CCC(C)C(N)C(=O)NC(CC(=O)O)C(=O)O` (stereo unspecified) [ile-asp], the LC retention time was 0.6 min.

Consider `NC(Cc1ccccc1)C(=O)NC(CC(=O)O)C(=O)O` (stereo unspecified) [phe-asp], for which the LC retention time worked out at 1.54 min.

On to `Nc1ccc(OS(=O)(=O)O)cc1` [4-Aminophenyl hydrogen sulfate], for which the LC retention time is 0.641 min.

In the case of `CC[C@@H](O)C(=O)[O-]` [(R)-2-hydroxybutyric acid], the LC retention time is 1.4 min.

With `O=C(O)CCC1NC(=O)C(CC(=O)O)NC1=O` (stereo unspecified) [Cyclic(asp-glu)], the LC retention time was 0.884 min.

For `CC(C)CC1NC(=O)C(C)NC1=O` (stereo unspecified) [Cyclic(ala-leu)], the LC retention time stood at 1.86 min.

As to `CC(C)C(N)C(=O)O` (stereo unspecified) [Valine], the LC retention time came to 0.798 min.

Turning to `O=C(O)CCC1NC(=O)C2CCCN2C1=O` (stereo unspecified) [Cyclic(glu-pro)], the LC retention time was 1.43 min.

For `CC(C)CC(N)C(=O)NC(CC(=O)O)C(=O)O` (stereo unspecified) [leu-asp], the LC retention time stood at 0.6 min.

Consider `Nc1ccccc1C(=O)CC(N)C(=O)O` (stereo not drawn) [l-kynurenine], for which the LC retention time was 1.34 min.

For `CCCC(=O)C(=O)O` [2-Oxovaleric acid], the LC retention time came out at 1.62 min.

`CC(C)C(N)C(=O)NC(Cc1ccccc1)C(=O)O` (stereo unspecified) [Val-Phe]: the LC retention time is 1.7 min.

With `CC(C)(O)C(=O)O` [alpha-hydroxyisobutyric acid], the LC retention time was determined as 1.4 min.

For `CC(C)C1NC(=O)C2CCCN2C1=O` (stereo unspecified) [Cyclic(pro-val)], the LC retention time amounted to 1.74 min.

For `CS(=O)CCC(N)C(=O)O` (stereo not drawn) [dl methine sulfoxide], the LC retention time was 0.596 min.

As for `CCC(C)(O)C(=O)O` (stereo unspecified) [2-Hydroxy-2-methylbutyric acid], the LC retention time was 1.63 min.

Consider `CC(C)C1NC(=O)C(CCC(=O)O)NC1=O` (stereo unspecified) [Cyclic(glu-val)], for which the LC retention time was 1.5 min.

Consider `CCCCCCCCCCCCCCCC(=O)OCC(COP(=O)([O-])OCC[N+](C)(C)C)OC(=O)CCCC(=O)O` (stereo unspecified) [PGPC], for which the LC retention time was 4.52 min.

As for `CC(C)C(NC(=O)C1CCC(=O)N1)C(=O)O` (stereo unspecified) [pglu-val], the LC retention time came to 1.57 min.

For the compound `CC(C)C(NC(=O)C(N)CCC(=O)O)C(=O)O` (stereo unspecified) [glu-val], the LC retention time is 1.32 min.

`CCC(C)C1NC(=O)C(CC(=O)O)NC1=O` (stereo unspecified) [Cyclic(asp-ile)]: the LC retention time amounted to 1.65 min.

Regarding `CCC=CCC=CCC=CCC=CCC=CCCCC(=O)OCC(COP(=O)([O-])OCC[N+](C)(C)C)OC(=O)CCCC=CCC=CCC=CCC=CCC=CCC` (stereo unspecified) [PC(20:5/20:5)], the LC retention time is 5.62 min.

As to `O=Cc1c[nH]c2ccccc12` [indole-3-carbaldehyde], the LC retention time was 2.27 min.

With `CC(=O)C(C)C(=O)O` (stereo unspecified) [2-methylacetoacetic acid], the LC retention time worked out at 1.61 min.

Turning to `CC(C)CC(=O)C(=O)O` [2-Oxo-4-methylpentanoic acid], the LC retention time stood at 1.99 min.

As for `Cc1ncc(C[n+]2csc(CCOP(=O)(O)O)c2C)c(N)n1` [Thiamine monophosphate Cloride dihydrat], the LC retention time is 0.595 min.

With `CC(C)CC(NC(=O)C(N)CC(=O)O)C(=O)O` (stereo unspecified) [asp-leu], the LC retention time is 0.6 min.

For `CCCCCCCCCCCCCCCCOCC(COP(=O)([O-])OCC[N+](C)(C)C)OC(=O)CCCCCCCC(=O)O` (stereo unspecified) [Azelaoyl PAF 10 ug/ml], the LC retention time stood at 4.86 min.

For `CNC(CC(=O)O)C(=O)O` (stereo unspecified) [N-methyl-aspartic acid], the LC retention time is 0.58 min.

In the case of `Nc1ccc(O)cc1` [4-aminophenol], the LC retention time amounted to 0.641 min.

With `CCC(C)C(NC(=O)CC(N)C(=O)O)C(=O)O` (stereo not drawn) [beta-asp-ile], the LC retention time is 0.6 min.

For the compound `CC(O)C1CCC2C3CCC4CC(=O)CCC4(C)C3CCC12C` (stereo not drawn) [20-beta-Hydroxy-5-alpha-pregnan-3-one], the LC retention time amounted to 4.33 min.

In the case of `CCC=CCC=CCC=CCC=CCC=CCCCC(=O)OCC(O)COP(=O)([O-])OCC[N+](C)(C)C` (stereo unspecified) [LPC(20:5)_enz], the LC retention time turned out to be 4.02 min.

In the case of `CCCCCCCCCCCCCCCCC=COCC(O)COP(=O)([O-])OCC[N+](C)(C)C` (stereo unspecified), the LC retention time was 4.95 min.

In the case of `CCC(C)C(=O)C(=O)O` (stereo unspecified) [2-Oxo-3-methylpentanoic acid], the LC retention time came to 1.86 min.

With `COc1ccc(O)c(C(=O)O)c1` [5-methoxysalicylic acid], the LC retention time worked out at 2.41 min.

For `CC(CO)C(=O)O` (stereo not drawn) [beta-hydroxyisobutyric acid], the LC retention time stood at 1.4 min.

`CC(O)C(C)C(=O)O` (stereo unspecified) [3-Hydroxy-2-methylbutyric acid]: the LC retention time came to 1.51 min.

For `COc1cc(C(=O)O)cc(OC)c1O` [syringic acid], the LC retention time was 1.79 min.

With `O=C(O)Cc1c[nH]c2ccc(O)cc12` [5-hydroxyindole-3-acetic acid], the LC retention time came to 1.61 min.

Consider `CCC(C)C1NC(=O)C(CCC(=O)O)NC1=O` (stereo unspecified) [Cyclic(glu-ile)], for which the LC retention time came out at 1.71 min.

For `CC(C)CC(NC(=O)C1CCC(=O)N1)C(=O)O` (stereo unspecified) [pglu-leu], the LC retention time came out at 1.89 min.

With `CC12CCC(=O)C=C1CCC1C2CCC2(C)C1CCC2(O)C(=O)CO` (stereo unspecified) [11-Deoxy-17-hydroxycorticosterone], the LC retention time was found to be 3.04 min.

`CCC(C)C1NC(=O)C(C(C)C)NC1=O` (stereo unspecified) [Cyclic(ile-val)]: the LC retention time stood at 2.31 min.

Regarding `CCC(C)C(NC(=O)C(N)CC(=O)O)C(=O)O` (stereo unspecified) [asp-ile], the LC retention time stood at 0.6 min.

In the case of `CCCCCC=CCC=CCCCCCCCC(=O)OCC(O)COP(=O)([O-])OCC[N+](C)(C)C` (stereo unspecified) [LPC(18:2)_enz], the LC retention time came to 4.25 min.

In the case of `CCCCCCCCCCCCCCCC(=O)OCC(COP(=O)([O-])OCC[N+](C)(C)C)OC(=O)CCCC=O` (stereo unspecified) [POV-PC 10 ug/ml], the LC retention time was found to be 4.66 min.

In the case of `CC(C)CC(NC(=O)CC(N)C(=O)O)C(=O)O` (stereo not drawn) [beta-asp-leu], the LC retention time was 0.6 min.

Regarding `CCCCCCCCCCCCCCCC(=O)OCC(COP(=O)([O-])OCC[N+](C)(C)C)OC(=O)CCCCCCCC(=O)O` (stereo unspecified) [PAZ-PC], the LC retention time is 4.66 min.

In the case of `O=C(O)CCc1ccc(O)c(O)c1` [3,4-dihydroxyhydrocinnamic acid], the LC retention time came to 1.69 min.

For the compound `CC(CCC(=O)NCCS(=O)(=O)O)C1CCC2C3CCC4CC(O)CCC4(C)C3CCC12C` (stereo unspecified) [taurolithocholic acid], the LC retention time worked out at 3.84 min.

For the compound `OCC(O)c1ccc(O)c(O)c1` (stereo unspecified) [3,4-dihydroxyphenyl glycol], the LC retention time turned out to be 1.02 min.

`O=C(O)CCCO` [gamma-hydroxybutyric acid]: the LC retention time worked out at 1.07 min.

For the compound `CC(O)CC(=O)[O-]` (stereo not drawn) [beta-hydroxybutyric acid], the LC retention time amounted to 1.78 min.

For `CC(C)CC1NC(=O)C(CC(=O)O)NC1=O` (stereo unspecified) [Cyclic(asp-leu)], the LC retention time came to 1.68 min.

On to `CCC(C)C1NC(=O)C(C)NC1=O` (stereo unspecified) [Cyclic(ala-ile)], for which the LC retention time came to 1.8 min.

For `CC(C)C(=O)C(=O)O` [Alpha-ketoisovaleric acid], the LC retention time is 1.45 min.

The next data set can be described thus: RP, Waters ACQUITY UPLC HSS T3, 100 × 2.1 mm, 1.8 µm; A: water + 0.1% formic acid, pH 3; B: 30% methanol + 70% acetonitrile + 0.1% formic acid, pH 3; gradient (min/%B) 0.0/5 1.0/8 2.0/15 3.0/40 4.0/70 4.5/100 5.0/100 6.4/100 6.6/5.0 6.8/5.0 7.0/5.0. The following applies: stereoisomer not certain.
As to `NCCc1ccc(O)c(O)c1` [dopamine], the LC retention time is 0.712 min.

As to `CCCc1oc(CCC(=O)O)c(C(=O)O)c1C` [cmpf], the LC retention time was 4.08 min.

`NCCCC(=O)O` [gamma-aminobutyric acid]: the LC retention time was 0.491 min.

Turning to `C=C(C)C1CC=C(C(=O)O)CC1` (stereo unspecified) [perillic acid], the LC retention time stood at 3.81 min.

Take `CC(O)CC(=O)O` (stereo unspecified) [3-hydroxybutyric acid]: the LC retention time came out at 3.44 min.

In the case of `CCCCCCCC(=O)OC1OC(C(=O)O)C(O)C(O)C1O` (stereo unspecified) [octanoic acid glucuronide], the LC retention time was determined as 3.92 min.

For `O=c1c(O)c(-c2ccc(O)c(O)c2)oc2cc(O)cc(O)c12` [quercetin], the LC retention time amounted to 3.74 min.

Consider `CC(C)C1NC(=O)C2CCCN2C1=O` (stereo unspecified) [cyclo-(pro-val)], for which the LC retention time worked out at 3.1 min.

On to `CC(=O)NC(CSC(=S)NCCCCS(C)=O)C(=O)O` (stereo unspecified) [sulforaphane-n-acetylcysteine], for which the LC retention time was found to be 3.24 min.

As for `Cc1cc(C(=O)O)ccc1O` [4-hydroxy-3-methylbenzoic acid], the LC retention time is 3.46 min.

Consider `COc1ccc(O)c(C(=O)O)c1` [2-hydroxy-5-methoxylbenzoic acid], for which the LC retention time stood at 3.69 min.

Take `CCCCCCCCC=CCCCCCCCC(N)=O` [oleamide]: the LC retention time is 4.81 min.

These data come from the RepoRT retention time repository (doi:10.1016/j.aca.2011.12.065).
